Measurements published in patent US20220125051A1, “PRE-HARVEST DESICCATION METHOD” (SYNGENTA CROP PROTECTION AG, priority 2019, published 2022).
Where two headings read alike, the source gives them in different places.

Key:
Experiment in all cases: Post-emergence efficacy, Method A
Format in all cases: in vivo
[1] = test system: Euphorbia heterophylla (EPHHL); details: Euphorbia heterophylla, post-emergence, 312 h, evaluated after 13 days
How it was run: (§1)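 Plants raised 14 days from seed in standard soil in a glasshouse (24/16 °C day/night, 14 h light, 65% humidity) were sprayed with compound dissolved in acetone plus IF50 solvent/emulsifier (50 g/l solution), diluted with 0.25% or 1% Empicol ESC70 + 1% ammonium sulphate. Damage was scored visually after 13 days (0 = none, 100 = total).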

Setaria faberi (SETFA) = details: Setaria faberi, post-emergence, 312 h, evaluated after 13 days
How it was run: as §1

[2] = test system: Amaranthus palmeri (AMAPA); details: Amaranthus palmeri, post-emergence, 312 h, evaluated after 13 days
How it was run: as §1

[3] = test system: Chenopodium album (CHEAL); details: Chenopodium album, post-emergence, 312 h, evaluated after 13 days
How it was run: as §1

[4] = test system: Digitaria sanguinalis (DIGSA); details: Digitaria sanguinalis, post-emergence, 312 h, evaluated after 13 days
How it was run: as §1

[5] = test system: Echinochloa crus-galli (ECHCG); details: Echinochloa crus-galli, post-emergence, 312 h, evaluated after 13 days
How it was run: as §1

Lolium perenne (LOLPE) = details: Lolium perenne, post-emergence, 312 h, evaluated after 13 days
How it was run: as §1

Eleusine indica (ELEIN) = details: Eleusine indica, post-emergence, 312 h, evaluated after 13 days
How it was run: as §1

[6] = test system: Ipomoea hederacea (IPOHE); details: Ipomoea hederacea, post-emergence, 312 h, evaluated after 13 days
How it was run: as §1

[7] = Application rate 500 g/Ha, 100=total damage to plant, 0=no damage to plant, read-out: Control of weed species after post-emergence application, EPHHL
[8] = Application rate 500 g/Ha, 100=total damage to plant, 0=no damage to plant, read-out: Control of weed species after post-emergence application, SETFA
[9] = Application rate 500 g/Ha, 100=total damage to plant, 0=no damage to plant, read-out: Control of weed species after post-emergence application, AMAPA
[10] = Application rate 500 g/Ha, 100=total damage to plant, 0=no damage to plant, read-out: Control of weed species after post-emergence application, CHEAL
[11] = Application rate 500 g/Ha, 100=total damage to plant, 0=no damage to plant, read-out: Control of weed species after post-emergence application, DIGSA
[12] = Application rate 500 g/Ha, 100=total damage to plant, 0=no damage to plant, read-out: Control of weed species after post-emergence application, ECHCG
[13] = Application rate 500 g/Ha, 100=total damage to plant, 0=no damage to plant, read-out: Control of weed species after post-emergence application, LOLPE
[14] = Application rate 500 g/Ha, 100=total damage to plant, 0=no damage to plant, read-out: Control of weed species after post-emergence application, ELEIN
[15] = Application rate 500 g/Ha, 100=total damage to plant, 0=no damage to plant, read-out: Control of weed species after post-emergence application, IPOHE
[16] = Application Rate 500 g/Ha, Method A, read-out: Control of weed species after post-emergence application, EPHHL (100=total damage to plant; 0=no damage to plant)
[17] = Application Rate 500 g/Ha, Method A, read-out: Control of weed species after post-emergence application, SETFA (100=total damage to plant; 0=no damage to plant)
[18] = Application Rate 500 g/Ha, Method A, read-out: Control of weed species after post-emergence application, AMAPA (100=total damage to plant; 0=no damage to plant)
[19] = Application Rate 500 g/Ha, Method A, read-out: Control of weed species after post-emergence application, CHEAL (100=total damage to plant; 0=no damage to plant)
[20] = Application Rate 500 g/Ha, Method A, read-out: Control of weed species after post-emergence application, DIGSA (100=total damage to plant; 0=no damage to plant)
[21] = Application Rate 500 g/Ha, Method A, read-out: Control of weed species after post-emergence application, ECHCG (100=total damage to plant; 0=no damage to plant)
[22] = Application Rate 500 g/Ha, Method A, read-out: Control of weed species after post-emergence application, LOLPE (100=total damage to plant; 0=no damage to plant)
[23] = Application Rate 500 g/Ha, Method A, read-out: Control of weed species after post-emergence application, ELEIN (100=total damage to plant; 0=no damage to plant)
[24] = Application Rate 500 g/Ha, Method A, read-out: Control of weed species after post-emergence application, IPOHE (100=total damage to plant; 0=no damage to plant)

Row | SMILES | pest or weed control at 500 g/ha [1, 7] [%] | pest or weed control at 500 g/ha (Setaria faberi (SETFA); [8]) [%] | pest or weed control at 500 g/ha [2, 9] [%] | pest or weed control at 500 g/ha [3, 10] [%] | pest or weed control at 500 g/ha [4, 11] [%] | pest or weed control at 500 g/ha [5, 12] [%] | pest or weed control at 500 g/ha (Lolium perenne (LOLPE); [13]) [%] | pest or weed control at 500 g/ha (Eleusine indica (ELEIN); [14]) [%] | pest or weed control at 500 g/ha [6, 15] [%] | also measured
1 | O=S(=O)([O-])CC[n+]1ccc(-c2ccccn2)cn1 [Compound A64] | 100 | 90 | 90 | 90 | 80 | 60 | 80 | 100 | 20 | 
2 | O=S(=O)([O-])CC[n+]1ccc(-c2ncc(Cl)cn2)cn1 [Compound A17] | 30 | 40 | 100 | 30 | 60 | 40 | 10 | 60 | 30 | 
3 | O=S(=O)([O-])CCC[n+]1ccc(-c2nccc(CO)n2)cn1 [Compound A154] |  |  |  |  |  |  |  |  |  | pest or weed control at 125 g/ha ([1]; Application Rate 125 g/Ha, Method A, read-out: Control of weed species after post-emergence application, EPHHL (100=total damage to plant; 0=no damage to plant)): 70%; pest or weed control at 125 g/ha (Setaria faberi (SETFA); Application Rate 125 g/Ha, Method A, read-out: Control of weed species after post-emergence application, SETFA (100=total damage to plant; 0=no damage to plant)): 30%; pest or weed control at 125 g/ha ([2]; Application Rate 125 g/Ha, Method A, read-out: Control of weed species after post-emergence application, AMAPA (100=total damage to plant; 0=no damage to plant)): 40%; pest or weed control at 125 g/ha ([3]; Application Rate 125 g/Ha, Method A, read-out: Control of weed species after post-emergence application, CHEAL (100=total damage to plant; 0=no damage to plant)): 50%; pest or weed control at 125 g/ha ([4]; Application Rate 125 g/Ha, Method A, read-out: Control of weed species after post-emergence application, DIGSA (100=total damage to plant; 0=no damage to plant)): 20%; pest or weed control at 125 g/ha ([5]; Application Rate 125 g/Ha, Method A, read-out: Control of weed species after post-emergence application, ECHCG (100=total damage to plant; 0=no damage to plant)): 20%; pest or weed control at 125 g/ha (Lolium perenne (LOLPE); Application Rate 125 g/Ha, Method A, read-out: Control of weed species after post-emergence application, LOLPE (100=total damage to plant; 0=no damage to plant)): 10%; pest or weed control at 125 g/ha (Eleusine indica (ELEIN); Application Rate 125 g/Ha, Method A, read-out: Control of weed species after post-emergence application, ELEIN (100=total damage to plant; 0=no damage to plant)): 10%; pest or weed control at 125 g/ha ([6]; Application Rate 125 g/Ha, Method A, read-out: Control of weed species after post-emergence application, IPOHE (100=total damage to plant; 0=no damage to plant)): 20%
4 | COc1cnc(-c2cc[n+](CCC(=O)[O-])nc2)nc1 [Compound A38] | 30 | 70 | 100 | 50 | 100 | 30 | 40 | 70 | 20 | 
5 | N#Cc1ccnc(-c2cc[n+](CCCS(=O)(=O)[O-])nc2)n1 [Compound A147] | 70 | 40 | 40 | 50 | 20 | 30 | 40 | 20 | 60 | 
6 | CC(=O)c1cnc(-c2cc[n+](CCC(=O)[O-])nc2)nc1 [Compound A58] | 60 | 90 | 100 | 80 | 90 | 60 | 50 | 80 | 10 | 
7 | O=S(=O)([O-])CC[n+]1ccc(-c2ncccc2F)cn1 [Compound A68] | 100 | 60 | 60 | 70 | 40 | 70 | 60 | 70 | 50 | 
8 | CC(CNS(=O)(=O)[O-])[n+]1ccc(-c2ncccn2)cn1 (stereo not drawn) [Compound A223] |  |  |  |  |  |  |  |  |  | pest or weed control at 500 g/ha [1, 16]: 80%; pest or weed control at 500 g/ha (Setaria faberi (SETFA); [17]): 80%; pest or weed control at 500 g/ha [2, 18]: 100%; pest or weed control at 500 g/ha [3, 19]: 90%; pest or weed control at 500 g/ha [4, 20]: 90%; pest or weed control at 500 g/ha [5, 21]: 70%; pest or weed control at 500 g/ha (Lolium perenne (LOLPE); [22]): 80%; pest or weed control at 500 g/ha (Eleusine indica (ELEIN); [23]): 90%; pest or weed control at 500 g/ha [6, 24]: 60%
9 | Cc1cc(Cl)cnc1-c1cc[n+](CCC(=O)O)nc1 [Compound A156] |  |  |  |  |  |  |  |  |  | pest or weed control at 500 g/ha [1, 16]: 50%; pest or weed control at 500 g/ha (Setaria faberi (SETFA); [17]): 20%; pest or weed control at 500 g/ha [2, 18]: 30%; pest or weed control at 500 g/ha [3, 19]: 50%; pest or weed control at 500 g/ha [4, 20]: 20%; pest or weed control at 500 g/ha [5, 21]: 10%; pest or weed control at 500 g/ha (Lolium perenne (LOLPE); [22]): 0%; pest or weed control at 500 g/ha (Eleusine indica (ELEIN); [23]): 20%; pest or weed control at 500 g/ha [6, 24]: 10%
10 | O=C(O)CC[n+]1ccc(-c2ccccn2)cn1 [Compound A148] | 60 | 50 | 100 | 40 | 50 | 50 | 20 | 40 | 20 | 
11 | O=S(=O)([O-])CC[n+]1ccc(-c2cc(C(F)(F)F)ncn2)cn1 [Compound A109] | 60 | 30 | 60 | 60 | 50 | 40 | 30 | 50 | 50 | 
12 | COc1cnc(-c2cc[n+](CCS(=O)(=O)[O-])nc2)nc1 [Compound A14] | 20 | 60 | 80 | 60 | 90 | 60 | 40 | 90 | 40 | 
